According to article PMC11473416, “Coumarin-chalcone derivatives as dual NLRP1 and NLRP3 inflammasome inhibitors targeting oxidative stress and inflammation in neurotoxin-induced HMC3 and BE(2)-M17 cell models of Parkinson's disease” (Frontiers in Aging Neuroscience, 2024):

Columns and labels:
[1] = cytotoxicity MTT assay in HMC3 cells; assay type: cell-based, human; details: human, HMC3 microglial cells, MTT, 1–100 μM, 24 h
Protocol: (§1) Human HMC3 microglial (CRL-3304) and neuroblastoma BE(2)-M17 (CRL-2267) cells were obtained from American Type Culture Collection. BE(2)-M17 develops a better dopaminergic phenotype than SH-SY5Y when treated with retinoic acid to direct neuronal differentiation (Carvajal-Oliveros et al., [2022]). Cells were routinely maintained in Dulbecco's Modified Eagle Medium-Nutrient Mixture F12 (DMEM-F12) supplemented with 10% fetal bovine serum (FBS; Thermo Fisher Scientific, Waltham, MA, USA) in a 37°C incubator, with 95% relative humidity and 5% CO2 (NuAire, Plymouth, MN, USA).
(§2) To evaluate cytotoxicity of LM compounds and MPP^+, HMC3 (1 × 10^4) or BE(2)-M17 (2 × 10^4) cells were plated on 96-well dishes, grown for 20 h, and treated with LM compounds (1–100 μM) or MPP^+ [HMC3: 0–8 mM; BE(2)-M17: 0–5 mM]. Next day, 20 μl of tetrazolium dye 3-(4,5-dimethylthiazol-2-yl)-2,5-diphenyltetrazolium bromide (MTT, 5 mg/ml; Sigma-Aldrich) was added to the cells at 37°C for 3 h. The resulted insoluble purple formazan products were dissolved by lysis buffer (composition: 10% Triton X-100, 0.1 N HCl, 18% isopropanol). The absorbance of the dissolved product at optical density (OD) 570 nm was read by using a FLx800 fluorescence microplate spectrophotometer (Bio-Tek, Winooski, VT, USA). The half maximal inhibitory concentration (IC50) of LM compounds was determined through the construction of a dose-response curve. MPP^+ at 4 mM (HMC3 cell viability: 65%−69%) or 0.62 mM [BE(2)-M17 cell viability: 79%−84%] was selected to induce inflammation for further experiments.

[2] = cytotoxicity MTT assay in BE(2)-M17 cells; assay type: cell-based, human; details: human, BE(2)-M17 neuroblastoma cells, MTT, 1–100 μM, 24 h
Protocol: as §1, §2

[3] = DPPH free radical scavenging activity; details: 10–160 μM, 30 min, room temperature
Protocol: Stable 1,1-diphenyl-2-picrylhydrazyl (DPPH) radical in ethanol (100 μM; Sigma-Aldrich) was used to measure the antioxidant activity of these LM compounds. After addition of quercetin (positive control) or LM compound (10–160 μM), the mixture was vortexed for 15 s and incubated at room temperature for 30 min. Subsequently, the mixture was measured spectrophotometrically at 517 nm (Multiskan GO microplate spectrophotometer; Thermo Fisher Scientific). The free radical scavenging activity was calculated as the percentage of DPPH discoloration using the formula 1 – (absorbance of sample/absorbance of control) × 100%, with half maximal effective concentration (EC50) calculated using the interpolation method.

[4] = oxygen radical antioxidant capacity (OxiSelect kit); details: at 4–100 μM concentration
Protocol: The test of oxygen radical antioxidant capacity (Ou et al., [2001]) was performed using OxiSelect™ kit (Cell Biolabs, San Diego, CA, USA). Briefly, trolox standards (2.5–50 μM) and LM compounds (4–100 μM) were prepared using a serial dilution in a mixture containing 50% acetone and 50% water. After adding fluorescein to blank (50% acetone/50% water), standards, or samples, the mixture was mixed and incubated at 37°C for 30 min. Subsequently, free radical initiator 2,2′-azobis(2-methylpropionamidine) dihydrochloride (AAPH) was added to generate peroxyl radicals (ROO•). The quenching of fluorescent probe over time was recorded at 480 nm excitation and 520 nm emission for 60 min (Bio-Tek FLx800). To quantify the oxygen radical absorbance capacity, the area under the curve (AUC) for blank, standard and samples were calculated. After subtraction of the blank, trolox equivalent (μM) of samples were determined using a calibration curve with trolox standards.

EC50 [3] [µM] | SMILES | IC50 at 24 h [1] [µM] | IC50 at 24 h [2] [µM] | oxygen radical antioxidant capacity, trolox equivalent [4] [µM]
 | COc1ccccc1/C=C/C(=O)c1c(O)c2ccccc2oc1=O [LM-009] | > 100 | > 100 | 
21 | O=c1c(O)c(-c2ccc(O)c(O)c2)oc2cc(O)cc(O)c12 [Quercetin, reference compound] |  |  | 14 to 39
